Source: patent US9095581B2, “Combinations of MEK inhibitors and Raf kinase inhibitors and uses thereof” (Ardea Biosciences, Inc., priority 2008, dated 2015)

Assays:
Hep3B cells = assay: In vitro cell proliferation assay of Hep3B cell line, compound A with other anticancer agents (Example 6B); type: cell-based, human; conditions: agent in combination with compound A; 3, 4 or 6 days
Description: Cell culture/Growth Inhibition Assay: Human hepatocelluar carcinoma Hep3B cells were obtained from ATCC (Manassas, Va.). Hep3B cells were maintained in EMEM supplemented with 10% fetal bovine serum, penicillin (100 U/ml), and streptomycin (100 μg/ml). Cells were maintained at 37° C., 5% CO2, and 100% humidity. For cell proliferation experiments, cells were plated in white 96-well plates with clear bases at either 3000 cells/100 μl/well, 2000 cells/100 μl/well or 1000 cells/100 μl/well and treated as follows for 3 days, 4 days, or 6 days respectively. […] Following incubation for the indicated time at 37° C., ATP levels were determined using CellTiterGlo (Promega, Madison, Wis.) and reading luminescence values using a Lit Biosystems Analyst HT (Sunnyvale, Calif.). The ATP level for each dose combination was determined in triplicate using independent wells, and the experiment was performed several times. […] For comparison, the dose response for each single agent was also determined. The relative cell proliferation number was determined with the following formula: […]

[1] = system: human gastric adenocarcinoma cell line AGS; assay: In vitro cell proliferative activity of AGS cell line (CellTiterGlo ATP levels); type: cell-based
Description: The effect of compound A in combination with sorafenib was examined in a cell line derived from a human gastric adenocarcinoma, in a cell proliferation assay.
Cell culture/Growth Inhibition Assay: The human gastric adenocarcinoma cell line AGS was obtained from ATCC (Manassas, Va.). AGS cells were maintained in DMEM/F12 supplemented with 10% fetal bovine serum, penicillin (100 U/ml), and streptomycin (100 μg/ml). Cells were maintained at 37° C., 5% CO2, and 100% humidity. For cell proliferation experiments, cells were plated in white 96-well plates with clear bases at 3000 cells/100 μl/well. After 24 hr, cell media was removed and replaced with media containing combinations of 621119 and sorafenib. Following incubation for 48 hours at 37° C., ATP levels were determined using CellTiterGlo (Promega, Madison, Wis.) and reading luminescence values using a LJL Biosystems Analyst HT (Sunnyvale, Calif.). The ATP level for each dose combination was determined in triplicate using independent wells, and the experiment was performed several times. For synergy experiments, either 621119 or sorafenib was dosed at a fixed, subefficacious dose, while the second agent (sorafenib or 621119 respectively) was added across a range of doses. For comparison, the dose response for each single agent was also determined. The relative cell proliferation number was determined with the following formula: […]

Hep3B Hepatoma cells = assay: In vitro cell proliferation assay of Hep3B cell line (CellTiterGlo ATP levels); type: cell-based, human; conditions: sorafenib alone
Description: The effect of compound A in combination with sorafenib was examined in a cell line derived from a human hepatocellular carcinoma in a cell proliferation assay.
Cell culture/Growth Inhibition Assay: Human hepatocelluar carcinoma Hep3B cells were obtained from ATCC (Manassas, Va.). Hep3B cells were maintained in EMEM supplemented with 10% fetal bovine serum, penicillin (100 U/ml), and streptomycin (100 μg/ml). Cells were maintained at 37° C., 5% CO2, and 100% humidity. For cell proliferation experiments, cells were plated in white 96-well plates with clear bases at either 3000 cells/100 μl/well, 2000 cells/100 μl/well or 1000 cells/100 μl/well and treated as follows for 3 days, 4 days, or 6 days respectively. After 24 hr, cell media was removed and replaced with media containing combinations of compound A of formula I and sorafenib. Following incubation for the indicated time at 37° C., ATP levels were determined using CellTiterGlo (Promega, Madison, Wis.) and reading luminescence values using a LJL Biosystems Analyst FIT (Sunnyvale, Calif.). The ATP level for each dose combination was determined in triplicate using independent wells, and the experiment was performed several times. […] For comparison, the dose response for each single agent was also determined. The relative cell proliferation number was determined with the following formula: […]

| SMILES | synergy with compound A in cell proliferation (Hep3B cells) | other results |
| --- | --- | --- |
| CS(=O)(=O)CCNCc1ccc(-c2ccc3ncnc(Nc4ccc(OCc5cccc(F)c5)c(Cl)c4)c3c2)o1 [Lapatinib] | no synergy | – |
| Nc1ccn([C@@H]2O[C@H](CO)[C@@H](O)C2(F)F)c(=O)n1 [Gemcitabine] | no synergy | – |
| CCCCCCCCCCCCCCCCCCOP(=O)([O-])OC1CC[N+](C)(C)CC1 [Perifosine] | no synergy | – |
| O=C(CCCCCCC(=O)Nc1ccccc1)NO [Vorinostat] | no synergy | – |
| Cc1ccc(NC(=O)c2ccc(CN3CCN(C)CC3)cc2)cc1Nc1nccc(-c2cccnc2)n1 [Imatinib] | no synergy | – |
| CNC(=O)c1cc(Oc2ccc(NC(=O)Nc3ccc(Cl)c(C(F)(F)F)c3)cc2)ccn1 [sorafenib, 4-[4-[[4-chloro-3-(trifluoromethyl)phenyl]carbamoylamino]phenoxy]-N-methyl-pyridine-2-carboxamide] | – | inhibition of cell proliferation (cell number relative to vehicle) ([1]; sorafenib alone at 5 uM, after 48 hours (FIG. 9B)): little activity; inhibition of cell proliferation (relative cell number) ([1]; sorafenib alone, 5 uM and lower, after 48 hours (FIG. 9A)): little activity; inhibition of cell proliferation (Hep3B Hepatoma cells; 2 μM and lower, after 4 days (FIG. 8C)): little or no inhibition; inhibition of cell proliferation (Hep3B Hepatoma cells; 5 μM and lower, after 3 days (FIG. 8A)): little activity |
